According to patent publication US20150376225A1, “NOVEL COMPOUNDS OF 11BETA-HYDROXY-STEROIDS FOR USE IN MITOCHONDRIA BIOGENESIS AND DISEASES ASSOCIATED WITH MITOCHONDRIAL DYSFUNCTION OR DEPLETION” (SPHAERA PHARMA PVTD. LTD., priority 2013, published 2015):

system: AMPK; assay: AMPK activation, cell based ELISA in Hep G2 cells; details: 1 h incubation, DMSO control as 100%
Method: AMPK Activation Protocol:
AMPK activation potential of the compounds was evaluated using cell based ELISA.
Hepatoma (Hep G2) liver cells were maintained in a T 75 culture flask-containing 25 mM DMEM+10% fetal calf serum. The cells were maintained in a T 75 culture flask-containing medium (DMEM+10% fetal calf serum). On reaching a confluence of 70 to 80%, the cells were seeded in a 96 well plate at a density of 40,000 cells per well in 25 mM DMEM+10% FCS medium. The plates were then incubated at 37° C. with 5% CO2 for 24 hours. Various concentrations of drugs were prepared in DMSO and diluted to required concentration with the medium and incubated at 37° C. with 5% CO2 for 30 min and 1 h for Epicatechin analogs and 11-BHP analogs respectively. Metformin was used as positive control. Cells were fixed with 4% formaldehyde for 30 minutes at room temperature and washed three times with PBS containing 0.1% Triton X-100. Endogenous peroxidase was quenched with 1% H2O2 in PBS-T (0.1% Tween 20) for 30 minutes and washed three times in PBS-T. Cells were blocked with 1% BSA in PBS-T for 1 hour.

SMILES	% activation pAMPK at 1 nM
C[C@]12CCC(=O)C=C1CCC1C2[C@@H](O)C[C@@]2(C)C1CC[C@@H]2O (stereo partly drawn) [Compound 1018, (10R,11S,13S,17S)-11,17-dihydroxy-10,13-dimethyl-1,2,6,7,8,9,10,11,12,13,14,15,16,17-tetradecahydro-3H-cyclopenta[a]phenanthren-3-one]	106%
CC(O)[C@H]1CC[C@H]2[C@@H]3CCC4=C[C@@H](O)CC[C@]4(C)[C@H]3[C@@H](O)C[C@]12C (stereo partly drawn) [Compound 1037, (3S,8S,9S,10R,11S,13S,14S,17S)-17-(1-hydroxyethyl)-10,13-dimethyl-2,3,6,7,8,9,10,11,12,13,14,15,16,17-tetradecahydro-1H-cyclopenta[a]phenanthrene-3,11-diol]	95%
C[C@]12CCC(=O)C=C1CCC1C2[C@@H](O)C[C@@]2(C)C1CC[C@]2(O)C(=O)O (stereo partly drawn) [Compound 1023, (10R,11S,13S,17R)-11,17-dihydroxy-10,13-dimethyl-3-oxo-2,3,6,7,8,9,10,11,12,13,14,15,16,17-tetradecahydro-1H-cyclopenta[a]phenanthrene-17-carboxylic acid]	127%
CC(=O)[C@H]1CCC2C3CCC4=CC(=O)CC[C@]4(C)C3[C@@](C)(O)C[C@@]21C (stereo partly drawn) [Compound 1035, (10R,11S,13S,17S)-17-acetyl-11-hydroxy-10,11,13-trimethyl-1,2,6,7,8,9,10,11,12,13,14,15,16,17-tetradecahydro-3H-cyclopenta[a]phenanthren-3-one]	102%
CC(=O)C1CCC2C3CC=C4CC5(CC[C@]4(C)C3[C@@H](O)C[C@]12C)OCCO5 (stereo partly drawn) [Compound 1029, 1-((10R,11S,13S)-11-hydroxy-10,13-dimethyl-1,2,4,7,8,9,10,11,12,13,14,15,16,17-tetradecahydrospiro[cyclopenta[a]phenan-threne-3,2′-[1,3]dioxolan]-17-yl)ethan-1-one]	105%
CO[C@H]1CC[C@@]2(C)C(=CCC3C2[C@@H](O)C[C@@]2(C)C3CC[C@@H]2C(C)=O)C1 (stereo partly drawn) [Compound 1038, 1-((3S,10R,11S,13S,17S)-11-hydroxy-3-methoxy-10,13-dimethyl-2,3,4,7,8,9,10,11,12,13,14,15,16,17-tetradecahydro-1H-cyclopenta[a]phenanthren-17-yl)ethan-1-one]	103%
C[C@]12CCC(=O)C=C1CCC1C2[C@@H](O)C[C@]2(C)C(=O)CCC12 (stereo partly drawn) [Compound 1019, (10R,11S,13S)-11-hydroxy-10,13-dimethyl-1,6,7,8,9,10,11,12,13,14,15,16-dodecahydro-3H-cyclopenta[a]phenanthrene-3,17(2H)-dione]	103%
CN(C)C(=O)C1CCC2C3CCC4=CC(=O)CC[C@]4(C)C3[C@@H](O)C[C@]12C (stereo partly drawn) [Compound 1030, (10R,11S,13S)-11-hydroxy-N,N,10,13-tetramethyl-3-oxo-2,3,6,7,8,9,10,11,12,13,14,15,16,17-tetradecahydro-1H-cyclopenta[a]phenanthrene-17-carboxamide]	105%
C[C@]12CC[C@H](O)CC1=CCC1C2[C@@H](O)C[C@@]2(C)C1CC[C@@H]2O (stereo partly drawn) [Compound 1017, (3S,10R,11S,13S,17S)-10,13-dimethyl-2,3,4,7,8,9,10,11,12,13,14,15,16,17-tetradecahydro-1H-cyclopenta[a]phenanthrene-3,11,17-triol]	97%
C[C@]12C[C@H](O)C3C(CCC4=CC(=O)CC[C@@]43C)C1CCC2C(=O)O (stereo partly drawn) [Compound 1020, (10R,11S,13S)-11-hydroxy-10,13-dimethyl-3-oxo-2,3,6,7,8,9,10,11,12,13,14,15,16,17-tetradecahydro-1H-cyclopenta[a]phenanthrene-17-carboxylic acid]	132%
C/C(=N/O)[C@H]1CCC2C3CCC4=C/C(=N\O)CC[C@]4(C)C3[C@@H](O)C[C@@]21C (stereo partly drawn) [Compound 1031, (10R,11S,13S,17S,Z)-11-hydroxy-17-((Z)-1-(hydroxyimino)ethyl)-10,13-dimethyl-1,2,6,7,8,9,10,11,12,13,14,15,16,17-tetradecahydro-3H-cyclopenta[a]phenanthren-3-one oxime]	109%
C[C@]12CC/C(=N/O)C=C1CCC1C2[C@@H](O)C[C@]2(C)/C(=N/O)CCC12 (stereo partly drawn) [Compound 1022, (3Z,10R,11S,13S,17E)-11-hydroxy-10,13-dimethyl-1,6,7,8,9,10,11,12,13,14,15,16-dodecahydro-3H-cyclopenta[a]phenanthrene-3,17(2H)-dione dioxime]	129%
C[C@]12C[C@H](O)C3C(CCC4=CC(=O)CC[C@@]43C)C1CCC2C(=O)CO (stereo partly drawn) [Compound 1048, (10R,11S,13S)-11-hydroxy-17-(2-hydroxyacetyl)-10,13-dimethyl-1,2,6,7,8,9,10,11,12,13,14,15,16,17-tetradecahydro-3H-cyclopenta[a]phenanthren-3-one]	108%
CC(O)C1CCC2C3CC=C4CC5(CC[C@]4(C)C3[C@@H](O)C[C@]12C)OCCO5 (stereo partly drawn) [Compound 1021, (10R,11S,13S)-17-(1-hydroxyethyl)-10,13-dimethyl-1,2,4,7,8,9,10,11,12,13,14,15,16,17-tetradecahydrospiro[cyclopenta[a]phenanthrene-3,2′-[1,3]dioxolan]-11-ol]	129%
[2H][C@]1(O)CC[C@@]2(C)C(=CCC3C2[C@@H](O)C[C@@]2(C)C3CC[C@@H]2C(C)=O)C1 (stereo partly drawn) [Compound 1045, 1-((3S,10R,11S,13S,17S)-3,11-dihydroxy-10,13-dimethyl-2,3,4,7,8,9,10,11,12,13,14,15,16,17-tetradecahydro-1H-cyclopenta[a]phenanthren-17-yl-3-d)ethan-1-one]	116%
CC[C@H]1CCC2C3CC=C4C[C@@H](O)CC[C@]4(C)C3[C@@H](O)C[C@@]21C (stereo partly drawn) [Compound 1041, (3S,10R,11S,13R,17S)-17-ethyl-10,13-dimethyl-2,3,4,7,8,9,10,11,12,13,14,15,16,17-tetradecahydro-1H-cyclopenta[a]phenanthrene-3,11-diol]	95%
CC(=O)[C@H]1CCC2C3CC=C4C[C@@H](O)CC[C@]4(C)C3[C@@](C)(O)C[C@@]21C (stereo partly drawn) [Compound 1047, 1-((3S,10R,11S,13S,17S)-3,11-dihydroxy-10,11,13-trimethyl-2,3,4,7,8,9,10,11,12,13,14,15,16,17-tetradecahydro-1H-cyclopenta[a]phenanthren-17-yl)ethan-1-one]	119%
CC(O)C1CCC2C3CCC4CC5(CC[C@]4(C)C3[C@@H](O)C[C@]12C)OCCO5 (stereo partly drawn) [Compound 1039, (10S,11S,13S)-17-(1-hydroxyethyl)-10,13-dimethylhexadecahydrospiro[cyclopenta[a]phenanthrene-3,2′-[1,3]dioxolan]-11-ol]	100%
CC(O)[C@H]1CCC2C3CCC4C[C@@H](O)CC[C@]4(C)C3[C@@H](O)C[C@@]21C (stereo partly drawn) [Compound 1040, (3S,10S,11S,13S,17S)-17-(1-hydroxyethyl)-10,13-dimethylhexadecahydro-1H-cyclopenta[a]phenanthrene-3,11-diol]	95%
CC(=O)[C@H]1CCC2C3CC=C4C[C@@H](O)CC[C@]4(C)C3[C@@H](O)C[C@@]21C (stereo partly drawn) [Compound 1016, 1-((3S,10R,11S,13S,17S)-3,11-dihydroxy-10,13-dimethyl-2,3,4,7,8,9,10,11,12,13,14,15,16,17-tetradecahydro-1H-cyclopenta[a]phenanthren-17-yl)ethan-1-one]	104%
CC(O)C1CCC2C3CC=C4C[C@@H](O)CC[C@]4(C)C3[C@@H](O)C[C@]12C (stereo partly drawn) [Compound 1036, (3S,10R,11S,13S)-17-(1-hydroxyethyl)-10,13-dimethyl-2,3,4,7,8,9,10,11,12,13,14,15,16,17-tetradecahydro-1H-cyclopenta[a]phenanthrene-3,11-diol]	102%
CN(C)C(=O)C1CCC2C3CCC4CC(=O)CC[C@]4(C)C3[C@@H](O)C[C@]12C (stereo partly drawn) [Compound 1033, (10S,11S,13S)-11-hydroxy-N,N,10,13-tetramethyl-3-oxohexadecahydro-1H-cyclopenta[a]phenanthrene-17-carboxamide]	107%
CC(=O)[C@H]1CCC2C3CCC4=CC(=O)CC[C@]4(C)C3[C@@H](O)C[C@@]21C (stereo partly drawn) [Compound 1025, (10R,11S,13S,17S)-17-acetyl-11-hydroxy-10,13-dimethyl-1,2,6,7,8,9,10,11,12,13,14,15,16,17-tetradecahydro-3H-cyclopenta[a]phenanthren-3-one]	118%
C[C@]12CCC(=O)C=C1CCC1C2[C@@H](O)C[C@]2(C)/C(=N/O)CCC12 (stereo partly drawn) [Compound 1024, (10R,11S,13S,E)-11-hydroxy-17-(hydroxyimino)-10,13-dimethyl-1,2,6,7,8,9,10,11,12,13,14,15,16,17-tetradecahydro-3H-cyclopenta[a]phenanthren-3-one]	133%
CC(=O)[C@H]1CCC2C3CCC4C[C@@H](O)CC[C@]4(C)C3[C@@H](O)C[C@@]21C (stereo partly drawn) [Compound 1042, 1-((3S,10S,11S,13S,17S)-3,11-dihydroxy-10,13-dimethylhexadecahydro-1H-cyclopenta[a]phenanthren-17-yl)ethan-1-one]	96%
